A short description of series [1]: Mammalian cell cytotoxicity assay (AlamarBlue, 48 h). Format: cell-based. Conditions: human, CRL-8155 cells (lymphoblasts); lymphocytic cell line CRL-8155; read-out: Mammalian CC50. Here is the method: Compounds were tested for cytotoxicity against CRL-8155 cells (human lymphoblasts). Cells were grown in culture with serial dilutions of compounds for 48 h and cytotoxicity was assayed using AlamarBlue (Life Technologies, Carlsbad, California CA, USA).
Background: Resazurin is reduced to fluorescent resorufin, in cell work by metabolically active cells.

For series [2], the system named is T. brucei brucei (strain BF427). In words: In vitro parasite growth arrest assay (AlamarBlue). Format: cell-based, Trypanosoma brucei brucei. As to conditions: Trypanosoma brucei, selected hit compounds, Table 1; read-out: T. brucei EC50. As for the experimental part:
Follow up compounds were tested for antiparasitic activity on T. brucei brucei (strain BF427). Parasites were tested in triplicate in the presence of serial dilutions of compound, and growth was quantified with AlamarBlue.

Details of series [3]: method as in PMID 28835807. Conditions: data are for close analog of Scaffold 9 parent (parent had poor ionization in MS); 60 min following IP dose; cited from earlier work.

Marks after values point to notes of the source that are not given here.

One may read the CC50 as the concentration giving 50% cytotoxicity. A word on the EC50: it is the concentration at which the effect is half-maximal. Take `COc1ccc(N2C(=O)CN(Cc3ccccc3)C2=S)cc1Cl` [Scaffold 9]: in series [1], the CC50 at 48 h is greater than 50000 nM. The EC50 in series [2] was determined as 346 nM. Also, the “B/P Ratio (Mouse)” value in series [3] is listed as 0.743 ***.

Values taken from article PMC7157241, “Phenotypic Drug Discovery for Human African Trypanosomiasis: A Powerful Approach” (Tropical Medicine and Infectious Disease, 2020).
